Source: ChEMBL document CHEMBL5131556, “Ibogaine and Their Analogs as Therapeutics for Neurological and Psychiatric Disorders” (ACS Med Chem Lett, 2022)

Experiments:
[1] = target: Synaptic vesicular amine transporter (Rattus norvegicus, UniProt Q01827); test: Inhibition of rat VMAT2 transfected in HEK cells using FFN206 as fluorescent substrate preincubated for 1 hr followed by substrate addition and measured after 30 mins by fluorescence plate reader assay; type: cell-based
[2] = target: Sodium-dependent serotonin transporter (Homo sapiens, UniProt P31645); test: Inhibition of human SERT transfected in HEK cells using APP+ as fluorescent substrate preincubated for 1 hr followed by substrate addition and measured after 30 mins by fluorescence plate reader assay; type: cell-based
Sequence of Sodium-dependent serotonin transporter (P31645 whole entry): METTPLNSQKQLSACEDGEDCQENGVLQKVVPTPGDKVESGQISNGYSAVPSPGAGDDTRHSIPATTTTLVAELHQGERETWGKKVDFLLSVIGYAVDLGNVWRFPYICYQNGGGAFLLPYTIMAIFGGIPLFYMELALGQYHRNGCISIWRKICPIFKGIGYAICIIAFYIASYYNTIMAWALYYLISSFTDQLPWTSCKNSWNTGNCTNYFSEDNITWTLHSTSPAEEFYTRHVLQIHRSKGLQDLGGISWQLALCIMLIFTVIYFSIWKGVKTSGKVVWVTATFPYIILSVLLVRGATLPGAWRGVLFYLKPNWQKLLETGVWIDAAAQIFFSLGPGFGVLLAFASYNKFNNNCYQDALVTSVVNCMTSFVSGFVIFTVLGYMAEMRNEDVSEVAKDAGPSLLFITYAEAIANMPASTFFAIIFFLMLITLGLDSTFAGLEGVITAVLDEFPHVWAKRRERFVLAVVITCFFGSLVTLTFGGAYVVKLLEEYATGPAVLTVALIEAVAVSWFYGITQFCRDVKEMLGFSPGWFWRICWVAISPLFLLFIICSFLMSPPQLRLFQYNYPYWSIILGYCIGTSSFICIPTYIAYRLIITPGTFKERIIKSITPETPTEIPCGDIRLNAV

Sequence of Synaptic vesicular amine transporter (Q01827 whole entry): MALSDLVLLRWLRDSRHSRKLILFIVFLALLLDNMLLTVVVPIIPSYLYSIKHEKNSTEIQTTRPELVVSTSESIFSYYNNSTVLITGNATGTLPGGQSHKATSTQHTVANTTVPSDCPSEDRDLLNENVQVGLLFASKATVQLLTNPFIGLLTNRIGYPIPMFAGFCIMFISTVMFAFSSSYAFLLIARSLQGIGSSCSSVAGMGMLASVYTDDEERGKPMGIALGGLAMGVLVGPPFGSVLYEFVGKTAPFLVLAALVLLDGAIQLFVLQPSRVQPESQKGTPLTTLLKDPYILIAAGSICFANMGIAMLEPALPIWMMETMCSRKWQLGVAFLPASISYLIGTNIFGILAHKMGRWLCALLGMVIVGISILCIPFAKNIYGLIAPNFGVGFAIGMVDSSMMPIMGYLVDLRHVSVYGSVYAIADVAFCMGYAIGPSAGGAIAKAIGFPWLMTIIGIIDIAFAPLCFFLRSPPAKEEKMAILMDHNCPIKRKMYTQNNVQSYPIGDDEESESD

Compound | IC50 [1] [nM] | IC50 [2] [nM]
CC[C@H]1C[C@@H]2C[C@H]3c4c(c5cc(OC)ccc5n4C)CCN(C2)[C@@H]13 | 740 | 1500
CC[C@H]1C[C@@H]2C[C@H]3c4[nH]c5ccc(OC)cc5c4CCN(C2)[C@@H]13 | 4000 | –
CC[C@H]1C[C@@H]2C[C@H]3c4[nH]c5ccc(C#N)cc5c4CCN(C2)[C@@H]13 | 3300 | 26
CC[C@H]1C[C@@H]2CC3c4[nH]c5ccc(O)cc5c4CCN(C2)[C@H]31 | 570 | –
CC[C@H]1C[C@@H]2C[C@H]3c4c(c5cc(C#N)ccc5n4C)CCN(C2)[C@@H]13 | 440 | 5.1
CC[C@H]1C[C@@H]2C[C@H]3c4[nH]c5ccccc5c4CCN(C2)[C@@H]13 | 3000 | 330
CC[C@H]1C[C@@H]2C[C@H]3c4[nH]c5ccc(OC)c(Br)c5c4CCN(C2)[C@@H]13 | 4900 | 670
CC[C@H]1C[C@@H]2C[C@H]3c4c(c5cc(O)ccc5n4CC)CCN(C2)[C@@H]13 | 70 | 1900
CC[C@H]1C[C@@H]2C[C@H]3c4c(c5cc(O)ccc5n4C)CCN(C2)[C@@H]13 | 170 | 59
CCOc1ccc2[nH]c3c(c2c1)CCN1C[C@@H]2C[C@H](CC)[C@H]1[C@H]3C2 | 80 | 9000
CCc1ccc2c(c1)c1c(n2C)[C@@H]2C[C@H]3C[C@H](CC)[C@@H]2N(CC1)C3 | 750 | 910
CC[C@H]1C[C@@H]2C[C@H]3c4c(c5ccccc5n4C)CCN(C2)[C@@H]13 | 1500 | 80
